Data taken from ChEMBL document CHEMBL1649408, “Synthesis and in vitro antimycobacterial activity of 8-OCH(3) ciprofloxacin methylene and ethylene isatin derivatives” (Eur J Med Chem, 2011).
≈ marks a conversion by molar mass, not a printed value.

Assays:
[1] = test system: Mycolicibacterium smegmatis; assay: Antimycobacterial activity against Mycobacterium smegmatis CMCC 93202 after 72 hrs by serial double dilution technique; format: functional; conditions: CMCC 93202, 72 h
[2] = test system: Mycobacterium tuberculosis; assay: microbe, parasite or virus in culture; format: functional; conditions: H37Rv ATCC 27294, 168 h
Description: Antimycobacterial activity against Mycobacterium tuberculosis H37Rv ATCC 27294 after 7 days by serial double dilution technique

[3] = Cytotoxicity against african green monkey Vero cells after 72 hrs by MTT assat; conditions: chlorocebus sabaeus
[4] = test system: Mycobacterium tuberculosis; assay: Ratio of compound MIC to 8-OCH3 ciprofloxacin MIC for Mycobacterium tuberculosis H37Rv ATCC 27294; format: functional

Structure (SMILES)	MIC [1] [µM]	MIC [2] [µM]	CC50 at 72 h ([3]; Vero cells) [µM]	Ratio [4]	CC50 at 72 h ([3]; vero) [µM]
COc1c(N2CCNCC2)c(F)cc2c(=O)c(C(=O)O)cn(C3CC3)c12	0.54 (≈ 0.195 µg/mL)	0.22 (≈ 0.0795 µg/mL)	242	–	–
CO/N=C1\C(=O)N(CCN2CCN(c3c(F)cc4c(=O)c(C(=O)O)cn(C5CC5)c4c3OC)CC2)c2ccccc21	2.77 (≈ 1.56 µg/mL)	1.14 (≈ 0.642 µg/mL)	306	–	–
COc1c(N2CCN(CN3C(=O)C(=O)c4ccccc43)CC2)c(F)cc2c(=O)c(C(=O)O)cn(C3CC3)c12	24 (≈ 12.5 µg/mL)	0.15 (≈ 0.0781 µg/mL)	70.8	–	–
COc1c(N2CCN(CN3C(=O)C(=O)c4cc(F)ccc43)CC2)c(F)cc2c(=O)c(C(=O)O)cn(C3CC3)c12	2.9 (≈ 1.56 µg/mL)	0.074 (≈ 0.0398 µg/mL)	70.6	–	–
COc1c(N2CCN(CN3C(=O)/C(=N\O)c4ccccc43)CC2)c(F)cc2c(=O)c(C(=O)O)cn(C3CC3)c12	2.92 (≈ 1.56 µg/mL)	0.15 (≈ 0.0803 µg/mL)	74.4	–	–
COc1c(N2CCN(CN3C(=O)/C(=N\O)c4cc(F)ccc43)CC2)c(F)cc2c(=O)c(C(=O)O)cn(C3CC3)c12	1.41 (≈ 0.78 µg/mL)	0.14 (≈ 0.0775 µg/mL)	73.8	–	–
CO/N=C1\C(=O)N(CN2CCN(c3c(F)cc4c(=O)c(C(=O)O)cn(C5CC5)c4c3OC)CC2)c2ccccc21	5.68 (≈ 3.12 µg/mL)	0.15 (≈ 0.0824 µg/mL)	76.5	–	–
CO/N=C1\C(=O)N(CN2CCN(c3c(F)cc4c(=O)c(C(=O)O)cn(C5CC5)c4c3OC)CC2)c2ccc(F)cc21	2.75 (≈ 1.56 µg/mL)	0.14 (≈ 0.0795 µg/mL)	46.8	1.6	–
CCO/N=C1\C(=O)N(CN2CCN(c3c(F)cc4c(=O)c(C(=O)O)cn(C5CC5)c4c3OC)CC2)c2ccccc21	2.77 (≈ 1.56 µg/mL)	0.14 (≈ 0.0789 µg/mL)	91.5	–	–
CCO/N=C1\C(=O)N(CN2CCN(c3c(F)cc4c(=O)c(C(=O)O)cn(C5CC5)c4c3OC)CC2)c2ccc(F)cc21	2.68 (≈ 1.56 µg/mL)	0.55 (≈ 0.32 µg/mL)	85.8	–	–
COc1c(N2CCN(CN3C(=O)/C(=N\NC(N)=O)c4ccccc43)CC2)c(F)cc2c(=O)c(C(=O)O)cn(C3CC3)c12	1.35 (≈ 0.78 µg/mL)	0.14 (≈ 0.0809 µg/mL)	266	1.6	–
COc1c(N2CCN(CN3C(=O)/C(=N\NC(N)=O)c4cc(F)ccc43)CC2)c(F)cc2c(=O)c(C(=O)O)cn(C3CC3)c12	2.62 (≈ 1.56 µg/mL)	0.13 (≈ 0.0774 µg/mL)	168	1.6	–
COc1c(N2CCN(CN3C(=O)/C(=N\NC(N)=S)c4ccccc43)CC2)c(F)cc2c(=O)c(C(=O)O)cn(C3CC3)c12	2.63 (≈ 1.56 µg/mL)	0.13 (≈ 0.0772 µg/mL)	154	1.6	–
COc1c(N2CCN(CCN3C(=O)C(=O)c4ccccc43)CC2)c(F)cc2c(=O)c(C(=O)O)cn(C3CC3)c12	5.84 (≈ 3.12 µg/mL)	–	–	–	–
COc1c(N2CCN(CCN3C(=O)C(=O)c4cc(F)ccc43)CC2)c(F)cc2c(=O)c(C(=O)O)cn(C3CC3)c12	2.83 (≈ 1.56 µg/mL)	–	–	–	–
COc1c(N2CCN(CCN3C(=O)/C(=N\O)c4ccccc43)CC2)c(F)cc2c(=O)c(C(=O)O)cn(C3CC3)c12	11.4 (≈ 6.25 µg/mL)	–	–	–	–
COc1c(N2CCN(CCN3C(=O)/C(=N\O)c4cc(F)ccc43)CC2)c(F)cc2c(=O)c(C(=O)O)cn(C3CC3)c12	22.1 (≈ 12.5 µg/mL)	–	–	–	–
CO/N=C1\C(=O)N(CCN2CCN(c3c(F)cc4c(=O)c(C(=O)O)cn(C5CC5)c4c3OC)CC2)c2ccc(F)cc21	2.68 (≈ 1.56 µg/mL)	1.1 (≈ 0.64 µg/mL)	12.8	–	–
COc1c(N2CCN(CCN3C(=O)/C(=N\NC(N)=S)c4cc(F)ccc43)CC2)c(F)cc2c(=O)c(C(=O)O)cn(C3CC3)c12	2.5 (≈ 1.56 µg/mL)	1.02 (≈ 0.638 µg/mL)	57	–	–
CCO/N=C1\C(=O)N(CCN2CCN(c3c(F)cc4c(=O)c(C(=O)O)cn(C5CC5)c4c3OC)CC2)c2ccccc21	5.41 (≈ 3.12 µg/mL)	–	–	–	–
CCO/N=C1\C(=O)N(CCN2CCN(c3c(F)cc4c(=O)c(C(=O)O)cn(C5CC5)c4c3OC)CC2)c2ccc(F)cc21	1.31 (≈ 0.78 µg/mL)	–	–	–	–
COc1c(N2CCN(CCN3C(=O)/C(=N\NC(N)=O)c4ccccc43)CC2)c(F)cc2c(=O)c(C(=O)O)cn(C3CC3)c12	5.28 (≈ 3.12 µg/mL)	–	–	–	–
COc1c(N2CCN(CCN3C(=O)/C(=N\NC(N)=O)c4cc(F)ccc43)CC2)c(F)cc2c(=O)c(C(=O)O)cn(C3CC3)c12	5.12 (≈ 3.12 µg/mL)	–	–	–	–
COc1c(N2CCN(CCN3C(=O)/C(=N\NC(N)=S)c4ccccc43)CC2)c(F)cc2c(=O)c(C(=O)O)cn(C3CC3)c12	2.57 (≈ 1.56 µg/mL)	1.05 (≈ 0.638 µg/mL)	56.1	–	–
O=C(O)c1cn(C2CC2)c2cc(N3CCNCC3)c(F)cc2c1=O [CIPROFLOXACIN]	2.36 (≈ 0.782 µg/mL)	0.97 (≈ 0.321 µg/mL)	–	–	601
NNC(=O)c1ccncc1 [ISONIAZID]	5.69 (≈ 0.78 µg/mL)	0.29 (≈ 0.0398 µg/mL)	–	–	–
CO[C@H]1/C=C/O[C@@]2(C)Oc3c(C)c(O)c4c(O)c(c(/C=N/N5CCN(C)CC5)c(O)c4c3C2=O)NC(=O)/C(C)=C\C=C\[C@H](C)[C@H](O)[C@@H](C)[C@@H](O)[C@@H](C)[C@H](OC(C)=O)[C@@H]1C [RIFAMPIN]	3.79 (≈ 3.12 µg/mL)	0.19 (≈ 0.156 µg/mL)	180	–	–
